# Test results as given in patent US10793531B2, “Triazole derivatives and their use as PDE4 activators” (MIRONID LIMITED, priority 2015, dated 2020).
# Like-named read-outs stand apart in the source and are kept apart here.
# Assays:
# [1] = Pharmacokinetic profile in male SD rats (Experiment 8); type: in vivo, rat
# Method: Example A was dissolved in 5% DMA+10% Solutol+85%(10% HPBCD in saline) to afford a clear dosing solution of 1 mg/mL. The dosing solution was administered to three rats at 2 mg/kg i.v. via the foot dorsal vein and to three further rats at 10 mg/kg p.o. via oral gavage. Blood samples (ca. 150 μL) were collected at 2, 5, 20 min, 1, 2, 4, 8, 12 and 24 h after i.v. dosing and at 5, 15, 30 min, 1, 2, 4, 8, 12 and 24 h after oral dosing. The blood samples were centrifuged at 4° C. (2000 g, 5 min) within 15 min of sample collection to obtain plasma samples. Plasma samples were stored at −80° C. until analysis. The samples were analysed by UPLC-MS/MS (API 4000).
# [2] = In vitro clearance using human hepatocytes (Experiment 6); type: in vitro ADME; details: human, cryopreserved human hepatocytes; 1 μM compound, 1 million cells/ml, 37° C.
# Method: (§1) Human hepatocyte stability is considered the gold standard method for evaluating the hepatic metabolism of drugs in vitro. The in vitro clearance of Example A was evaluated using cryopreserved human hepatocytes according to the method of Lau et al. (Lau, Y. Y. et al. Drug Metab. Dispos. 30: 1446-1454, 2002) with minor modifications.
# (§2) Cryopreserved hepatocytes were thawed in a water bath at 37° C. and transferred to a tube containing 50 ml of hepatocyte thaw medium. The hepatocytes were centrifuged at 500 rpm for 3 min. The supernatant was removed and the hepatocytes were resuspended in medium, mixed gently and centrifuged again at 500 rpm for 3 min. The supernatant was discarded and the hepatocyte pellet was gently resuspended in medium to a final density of 2 million cells/ml.
# (§3) Incubations were carried out at a final test compound concentration of 1 μM. Stock solutions of the compounds were prepared in DMSO and diluted to the desired concentrations before adding to the hepatocytes. Incubations were carried out with a hepatocyte concentration of 1 million cells/ml. Samples (100 μL) were incubated at 37° C. for 0, 15, 30, 60 and 120 min in duplicate. At the end of the incubation time, 200 μl of acetonitrile with internal standard was added and the wells were sealed. […]
# (§4) The samples were analysed by LC-MS/MS using a Sciex API 4000™ system.
# [3] = system: cryopreserved human hepatocytes; test: as above; type: in vitro ADME; details: 1 μM compound, 1 million cells/ml, 37° C.
# Method: as §1, §2, §3, §4
# [4] = target: T1, full-length human PDE4D5 (Homo sapiens, UniProt Q08499); test: PDE4 radio-assay, PDE4D5 long form activation (Experiment 1); type: biochemical; details: n ≥ 2, read-out: PDE4D5 activity (mean % increase in counts over basal activity without added compound)
# T1 construct: stably expressed the full-length human PDE4D5, PDE4A4 and PDE4B1 long isoforms; made in house; cytosol fraction of the lysate
# Method: One suitable method of detecting whether or not a compound is capable of serving as an activator of a PDE4 long form is using a two-step radio-assay procedure described in Experiment 1. In summary, the method involves incubating a PDE4 long form with a test small molecule activator, together with [^3H]-labelled cAMP to assess alterations in the breakdown of cAMP to the 5′-adenosine monophosphate (5′-AMP) product. A sample of the reaction mixture from such an incubation is subsequently treated with snake venom 5′-nucleotidase to allow conversion of the nucleotide [^3H]-labelled 5′-AMP to the uncharged nucleoside [^3H]-labelled adenosine, which can be separated and quantified to assess PDE4 activity and the effect of the test compound (Thompson, W. J. and Appleman, M. M. Biochemistry 10: 311-316, 1971, with some modifications as described in: Marchmont, R. J. and Houslay, M. D. Biochem J. 187: 381-92, 1980).
# HEK 293 cells were transfected with pDEST™ PDE4 expression vectors using Lipofectamine LTX/Plus reagent (Invitrogen) as outlined by the manufacturer and clonal isolates expanded to obtain cell lines that stably expressed the full-length human PDE4D5, PDE4A4 and PDE4B1 long isoforms and the full length human PDE4B2 short isoform. These were called the HEK-PDE4D5, HEK-PDE4A4, HEK-PDE4B1 and HEK-PDE4B2 cell lines, respectively.
# HEK-PDE4D5 cells were seeded out in 100 mm plates and incubated at 37° C. in an atmosphere of 5% CO2, 95% air. Cell lysates were prepared using KHEM buffer [50 mM KCl, 10 mM EGTA, 50 mM HEPES (pH 7.2), 1.92 mM MgCl2].
# To prepare the cell lysates, the 100 mm plates containing the cells were placed on ice and washed with ice-cold PBS (phosphate buffered saline, pH 7.4). KHEM buffer (500 μl) was added to the cells. Cells were then scraped off the plate and triturated using a needle (BD Microlance™ 0.8, 40 mm). The lysed cells were then centrifuged at 2000 rpm for 10 minutes to remove cell debris and the supernatant (cell lysate containing recombinant PDE4D5) was transferred to a fresh tube and kept on ice.
# The cell lysate containing recombinant PDE4D5 was transferred into a centrifuge tube and placed into an ultracentrifuge (BECKMAN COULTER) and spun at high speed (100,000 g) for 30 minutes at 4° C. The cytosol fraction was then collected and its protein amount determined using a BCA protein assay.
# PDE assays were performed using a final concentration of 10 mM Tris/5 mM MgCl2 and 1 μM [3H]-cAMP (Perkin Elmer) plus PDE4D5 cell lysate cytosol fraction, containing over-expressed PDE4D5, with and without test compound. Incubations were performed at 30° C. for 5 minutes. The samples were then placed in a boiling water bath for 2 minutes to denature the PDE enzyme, and returned to ice. Samples were allowed to cool for 1.0 min after which snake venom 5′-nucleotidase (25 μl, 1 mg/ml; Sigma) was added. The tubes were vortexed and incubated in a water bath at 30° C. for 10 minutes, to attain conversion of [3H]-5′-AMP to [3H]-adenosine, and then placed on ice. Dowex ion exchange resin (Sigma) prepared as a 1:1 Dowex:water stock was thoroughly re-suspended and diluted 2:1 with ethanol. The resulting Dowex suspension (0.4 ml) was added to each tube. Tubes were vortexed to mix and then incubated on ice for at least 15 minutes before a final vortex. The Dowex resin was pelleted by centrifugation at 13,000 g at 4° C. for 3 minutes and 150 μl of the supernatant was removed to an Eppendorf tube containing 1 ml of ScintiSafe3 scintillation fluid (Fisher). Tubes were vortexed thoroughly to mix and the recovered [3H]-adenosine was quantified by measuring counts over 1 minute in a scintillation counter.
# T1 sequence (Q08499 1-745 isoform Q08499-6): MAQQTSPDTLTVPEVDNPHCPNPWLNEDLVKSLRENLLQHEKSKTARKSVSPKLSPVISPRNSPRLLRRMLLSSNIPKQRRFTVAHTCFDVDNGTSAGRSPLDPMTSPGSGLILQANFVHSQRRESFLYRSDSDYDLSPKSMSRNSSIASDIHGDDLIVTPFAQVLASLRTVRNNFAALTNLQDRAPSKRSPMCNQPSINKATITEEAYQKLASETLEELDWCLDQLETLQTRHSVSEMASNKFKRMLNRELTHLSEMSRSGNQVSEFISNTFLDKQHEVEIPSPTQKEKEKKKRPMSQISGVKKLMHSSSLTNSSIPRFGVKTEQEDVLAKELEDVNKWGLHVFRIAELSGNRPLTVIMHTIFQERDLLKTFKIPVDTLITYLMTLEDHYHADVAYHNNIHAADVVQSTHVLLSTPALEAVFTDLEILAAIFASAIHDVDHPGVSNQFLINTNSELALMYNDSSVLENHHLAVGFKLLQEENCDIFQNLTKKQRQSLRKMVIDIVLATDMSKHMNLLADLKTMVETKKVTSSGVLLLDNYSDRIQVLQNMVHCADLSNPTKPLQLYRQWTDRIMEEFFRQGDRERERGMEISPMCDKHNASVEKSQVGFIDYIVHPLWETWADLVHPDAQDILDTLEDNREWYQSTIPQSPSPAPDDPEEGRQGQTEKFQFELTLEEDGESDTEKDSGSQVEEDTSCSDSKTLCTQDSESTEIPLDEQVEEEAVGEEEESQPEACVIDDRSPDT
smiles,measurement,setting,value
"CCc1nc(-c2ccc(Cl)c(F)c2)nn1CC(=O)NCc1cccc(F)c1 [Example A, N-(3-Fluorobenzyl)-2-[3-(4-chloro-3-fluorophenyl)-5-ethyl-1H-1,2,4-triazol-1-yl]acetamide]",abnormal effects observed in the rats,[1]; 2 mg/kg i.v. or 10 mg/kg p.o.,No abnormal effects were observed
same,half-life,"[1]; rat, iv, 2 mg/kg i.v., plasma, read-out: terminal half life after i.v. dosing (converted)",132 min
same,bioavailability,"[1]; rat, oral, 10 mg/kg p.o. vs 2 mg/kg i.v., plasma",100%
same,half-life,"[1]; rat, po, 10 mg/kg p.o., plasma, read-out: terminal half life after oral dosing (converted)",546 min
same,half-life at 1 μM,[2],54 min
same,stability in human hepatocytes (in words),[3],moderately stable
same,activation at 1 µM,[4]; 1 μM compound,-3.6%
same,activation at 3 µM,[4]; 3 μM compound,-0.2%
same,activation at 10 µM,[4]; 10 μM compound,12.5%
same,activation at 30 µM,[4]; 30 μM compound,39.7%
same,activation at 50 µM,[4]; 50 μM compound,91.9%
